Assay results reported in EP3035931B1, “COMPOSITION FOR REDUCING NERVOUS SYSTEM INJURY AND METHOD OF MAKING AND USE THEREOF” (Morehouse School of Medicine, priority 2013, dated 2015).

How the values were obtained:
[1] = system: COS-7 cells stably transfected with ASIC1a; test: Acid-induced LDH release in ASIC1a-transfected COS-7 cells; conditions: 100 µM; 1 hr pH 6.0, LDH 24 hr after acid incubation
ASIC1^-/- neurons = format: cell-based, mouse; conditions: ASIC1^-/- neurons; n=8 each
Method: Following anesthesia with halothane, cerebral cortices were dissected from E16 Swiss mice or P1 ASIC1+/+ and ASIC1-/- mice and incubated with 0.05% trypsin-EDTA for 10 min at 37° C. Tissues were then triturated with fire-polished glass pipettes and plated on poly-L-ornithine-coated 24-well plates or 25x25 mm glass coverslips at a density of 2.5x10^5 cells per well or 10^6 cells per coverslip. Neurons were cultured with MEM supplemented with 10% horse serum (for E16 cultures) or Neurobasal medium supplemented with B27 (for PI cultures) and used for electrophysiology and toxicity studies after 12 days. Glial growth was suppressed by addition of 5-fluoro-2-deoxyuridine and uridine, yielding cultured cells with 90% neurons as determined by NeuN and GFAP staining (data not shown).
(§1) Background absorbance at 620 was subtracted.
. […] . In contrast to acid incubation, 1 hr treatment of ASIC1^-/- neurons with 1 mM NMDA+10 µM glycine (in Mg^2+-free [pH 7.4] ECF) induced 84.8% ± 1.4% of maximal LDH release at 24 hr (n=4, FIG. 9C), indicating normal response to other cell injury processes.

Na^+/Ca^2+ ion exchanger = conditions: cited from earlier work
[2] = Mouse 60 min MCAO, intracerebroventricular injection one hour after MCAO, infarct volume; conditions: mice, evaluated one day after ischemia induction, FIG. 18
cortical neurons [3] = format: cell-based, mouse
Method: as §1
Acid-induced injury was studied on neurons grown on 24-well plates incubated in either pH 7.4 or 6.0 ECF containing MK801, CNQX, and nimodipine; see FIG. 8. Cell injury was assayed by the measurement of lactate dehydrogenase (LDH) release (Koh and Choi, J. Neurosci., 1987, 20:83-90) at various time points (FIGS. 8A and 8B) and by fluorescent staining of alive/dead cells. Compared to neurons treated at pH 7.4, 1 hr acid incubation (pH 6.0) induced a time-dependent increase in LDH release (FIG. 8A). After 24 hr, 45.7% ± 5.4% of maximal LDH release was induced (n=25 wells). Continuous treatment at pH 6.0 induced greater cell injury (FIG. 8B, n=20).

cortical neurons [4] = test: Fura-2 Ca^2+ imaging of acid-induced increase of [Ca^2+]i in cortical neurons; format: cell-based, mouse; conditions: pH drop to 6.0; blockers of glutamate receptors and voltage-gated Ca^2+ channels present; n=6-8

In the case of N=C(N)NC(=O)c1nc(Cl)c(N)nc1N [amiloride], the “acid-induced LDH release” value [1] is listed as “inhibited”, the “effect on acid-induced LDH release after knockout of the ASIC1 gene” value (ASIC1^-/- neurons) is listed as “eliminated the effect” and the IC50 (Na^+/Ca^2+ ion exchanger) is listed as 1100 µM. For the same molecule, the infarct volume [2] was “effectively reduce infarct volume”, the “LDH release at 24 hr” value (cortical neurons [3]; 100 µM amiloride 10 min before and during 1 hr pH 6.0 incubation, without blocker 45.3% ± 3.8%) was 31.1% ± 2.5% and the “LDH release induced by 1 hr acid incubation of ASIC^+/+ neurons” value (cortical neurons [3]; pH 6.0, n=8-12) was “reduced”. The “baseline LDH release” value (cortical neurons [3]; pH 7.4 ECF for 1 hr) was “did not affect”, the “LDH release, prolonged incubation with amiloride alone” value (cortical neurons [3]; prolonged incubation (e.g., 5 hr), n=8) was “increased LDH release” and the “peak and sustained increases in [Ca^2+]i” value (cortical neurons [4]) was “largely inhibited”.
